According to paper PMC7796031, “Studies of Coumarin Derivatives for Constitutive Androstane Receptor (CAR) Activation” (Molecules, 2020):

Columns and labels:
[1] = biological target: T1, Constitutive androstane receptor (CAR) (Homo sapiens, UniProt Q14994); assay: In vitro CAR activation screening assay (UGT1A1 promoter gtPBREM-pGL4 luciferase reporter in Hep3B-gtPBREM cells); type: cell-based
T1 construct: The pGL4-gtPBREM plasmid was transfected into Hep3B cells; endogenous in cells
T1 sequence (Q14994 1-352): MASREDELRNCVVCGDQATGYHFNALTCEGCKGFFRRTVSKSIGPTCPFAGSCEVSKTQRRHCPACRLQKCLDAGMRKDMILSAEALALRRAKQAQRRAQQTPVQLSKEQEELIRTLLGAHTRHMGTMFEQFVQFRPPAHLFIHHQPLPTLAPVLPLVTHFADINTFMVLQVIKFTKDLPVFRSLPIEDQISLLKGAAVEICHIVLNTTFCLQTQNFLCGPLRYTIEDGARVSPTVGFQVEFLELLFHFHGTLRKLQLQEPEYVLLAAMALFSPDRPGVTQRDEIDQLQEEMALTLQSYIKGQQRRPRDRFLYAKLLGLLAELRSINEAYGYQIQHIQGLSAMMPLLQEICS
Description: Until now, there is no commercially available high throughput screening method for CAR activation. Traditionally, CAR activation can be detected in western blots by its downstream signals such as UGT1A1, MRP2 or CYP2B6. […] However, this method was slow and pricy. In order to rapidly screen all the compounds for CAR activation at less cost, an in vitro CAR activation screening assay was developed: DNA was extracted from Hep3B cells and UGT1A1 promoter was obtained using PCR amplification. Ligation between UGT1A1 promoter and pGL4 vector was performed and the plasmid was amplified via E. coli replication. The desired plasmid was extracted from E. coli and transfected into Hep3B. The desired colony bearing UGT1A1 promoter-pGL4 plasmid was selected by neomycin. CAR activation was measured by adding tested compounds to Hep3B for several hours and luminescence was measured. Higher activation will get higher luminescence readout. This assay system was validated with two different CAR agonists: CITCO (direct agonist) and scoparone (an indirect agonist). […] Different concentration of scoparone at 1, 5, 10 and 20 μM had been tested either for luciferase assay or downstream UGT1A1 and MRP2 expression (data not shown) and 10 μM was selected to be the best condition for the following work.
After successfully establishing the in vitro assay, all of the coumarin compounds were subjected to the screening (at 10 μM) and their SAR was discussed. Although the reporter system can successfully identify CAR-activating compounds under 8 h and display better efficiency and sensitivity compared with western blots, it only presented a medium luciferase response. According to previous studies, CITCO was reported to only moderately enhance human CAR (less than 2-fold), compared with the enhance provided by TCPOBOP for murine CAR (5- to 10-fold) in luciferase reporter assays. […] Another possibility for the medium response in our reporter system might be the contribution of the whole gtPBREM element which might include response-suppressive elements that was used and the single nucleotide variation of DR3 element which was reported to slightly reduce the original UGT1A1 activity.
The genomic DNA was isolated from Hep3B cells using Wizard® Genomic DNA Purification Kit (Promega, Fitchburg, WI, USA). The promoter region of UGT1A1 gene, gtPBREM element, was amplified by AccuPrime^TM Taq DNA Polymerase High Fidelity Kit (Invitrogen, MA, USA). The sequence of the amplified element was confirmed by DNA sequencing company and cloned into pGL4 luciferase reporter vector. The pGL4-gtPBREM plasmid was transfected into Hep3B cells. The stable pGL4-gtPBREM transfected Hep3B cells, Hep3B-gtPBREM cells, were established after G418 selection. The luciferase activity represented of CAR activation ability was measured using individual established clone. Further, CAR-shRNA was obtained from the Genomic Research Center and transfected into Hep3B-gtPBREM cells. The transient transfected shCAR-Hep3B-gtPBREM cells were used for further luciferase assays.
The Hep3B-gtPBREM cells and shCAR-Hep3B-gtPBREM cells (1.5 × 10^5 cells/well) were seeded into 12-well plates for overnight then pre-determined concentration compounds were added for desired time. After treatment, transfected cells were washed twice in PBS, lysated with 1× passive lysis buffer and luciferase intensity of equal amount of cell lysate was measured by a Synergy HT Multi-Mode Microplate Reader (BioTek, Winooski, VT, USA).

MRP2 = assay: Protein expression of MRP2 (western blot); type: cell-based, human; details: Figure 2; after scoparone or CITCO treatment
Description: Figure 7 The protein expressions of MRP2 after 6,7-diprenoxycoumarin (50) treatment. Hep3B cell (1 × 10^6) were treated with 50 (5, 10, 20 and 40 μM) for 24 h. Treated cell lysates were prepared as described in the Methods section and the expression of MRP2 was analyzed by western blot.
(§1) 1 × 10^6 cells were seeded in a 10 cm plate, incubated at 37 °C for overnight and treated with various concentrations of compounds for the indicated times. After incubation, the culture medium was removed and washed twice with 2 mL ice-cold 1× PBS. Three hundred μL of protein lysis buffer (150 mM NaCl, 50 mM Tris-HCl (pH 7.4), 1% SDS, 1% Triton X-100, 1 mM PMSF) was added into each plate, scraped with a rubber policeman, collected into a premarked microtube and the incubated in ice for 1 h, sonicated by Ultrasonic Cell Disruptor for three time at 5 s each. The cell lysated was cleared by centrifugation at 12,000× g for 15 min at 4 °C. Supernatants were transferred into a fresh marked microtube and stored at −20 °C for future use.
(§2) Protein concentration of each sample was determined using a BCA Protein Assay Kit (Pirece®, Thermo Scientific). Different percentages of SDS-PAGE gels were prepared according to the molecular size of proteins of interest. After complete polymerization of stacking gels, each sample with equal amount of total protein was separated in polyacrylamide gels (stacking gel: 50 v, 60 min; separating gel: 100 v, 60 min). After separating, wet-transfer method was utilized to transfer proteins onto the PVDF membrane. The gels were assembled in the transfer sandwich and put in a transfer tank filled with transfer buffer (25 mM glycine, 0.15% ethanolamine, 20% methanol). The electro-transfer was performed at the voltage of 100 volt for 80 min at 4 °C. After transfer, PVDF-membrane was blocked with 5% BSA in 1× TBS-Tween at room temperature for 1 h. Membrane was washed with 10 mL 1× TBS-Tween three times and incubated with primary antibodies overnight at 4 °C with gentle agitation. […] The emitted fluorescence from the membrane was caught on a LAS-4000 biomolecule imager (FUJI.).

UGT1A1 = assay: Protein expression of UGT1A1 (western blot); type: cell-based, human; details: Figure 2; after scoparone or CITCO treatment
Description: as §1
as §2, with “agitation. After primary antibody was removed, the membrane was washed three times with 10 mL 1× TBS-Tween for 10 min at room temperature with constant shaking.” for “agitation.”

human CAR = test system: human CAR; set-up: method as in PMID 10757780, PMID 12611900; details: cited from earlier work
[2] = MTT cell cytotoxicity assay of coumarin derivatives; type: cell-based; details: human, Hep 3B cells, 72 h treatment
Description: The colorimetric assay for cellular growth and survivals described by Hansen et al. with modifications. The MTT (3-(4,5-cimethylthiazol-2yl)-2,5-diphenyltetrazolium bromide, Sigma-Aldrich Inc., Germany) assay was utilized to determine the IC50 value of each compound. Cells (5000 cells/well) were seeded into 96-well plates for 24 h and subsequently the cells were treated with vehicle or tested compounds at pre-determined concentration. After 72 h treatment, MTT solution was added to the final concentration of 0.5 mg/mL and continue cultured for 2 h at 37 °C. Afterward, the cells were lysed with lysis buffer (40% DMF and 20% SDS in H2O) overnight at 37 °C to lysate the cells. The absorbance at 570 nm was then detected by a microplate reader and the IC50 value was calculated.

murine CAR = test system: murine CAR; set-up: method as in PMID 10757780, PMID 12611900; details: cited from earlier work

Clc1ccc(-c2nc3sccn3c2/C=N/OCc2ccc(Cl)c(Cl)c2)cc1 [CITCO, 6-(4-Chlorophenyl) imidazo [2,1-b] [1, 3] thiazole-5-carbaldehyde O-(3,4-dichlorobenzyl) oxime, reference compound]
elevation of luciferase activity ([1]; assay validation, direct agonist): about 50%
protein expression of MRP2 (CAR downstream gene) (MRP2): upregulated
protein expression of UGT1A (CAR downstream gene) (UGT1A1): upregulated
enhancement of human CAR in luciferase reporter assays (human CAR): less than 2 fold

CCCCCOc1cc2ccc(=O)oc2cc1OCCCCC [Compound 47, 6,7-Dipentoxycoumarin]
activation at 10 µM ([1]; Table 2, 10 μM, (luminescence of compound − luminescence of scoparone)/luminescence of scoparone × 100%, read-out: CAR Activation Fold): -10%
IC50 at 72 h [2]: 31 µM
melting point: 57 to 59 °C

Clc1cnc(Oc2ccc(Oc3ncc(Cl)cc3Cl)cc2)c(Cl)c1 [TCPOBOP]
enhancement of murine CAR in luciferase reporter assays (murine CAR): 5- to 10 fold
